Experimental data taken from article PMC3454376, “Salidroside Improves Behavioral and Histological Outcomes and Reduces Apoptosis via PI3K/Akt Signaling after Experimental Traumatic Brain Injury” (PLoS ONE, 2012).

Tests used:
Body weight after CCI = format: in vivo, mice; conditions: P>0.05
cytosolic Smac/DIABLO = experiment: Western blot, cytosolic fraction of injured cortex; format: in vivo, mice; conditions: 20 mg/kg ip 10 min after CCI, P<0.05
Method: (§1) Three sets of experiments were performed. The first set was to investigate the protective effects of salidroside. All animals were randomized into 1 of 3 groups (sham injury, CCI + vehicle, CCI + SALD 20). Surgery/injury, behavioral testing, and tissue analyses were performed by different individuals. Behavioral testing and tissue analyses were performed by individuals blinded to the treatment group. Salidroside (Cayman Chemical, Ann Arbor, MI, USA) dissolved in normal saline (0.25 mL) or a corresponding volume of vehicle (saline) was administered intraperitoneally 10 min following injury. Testing after injury was completed as follows: 1) behavioral testing at days 1, 4, 7, 14, 21, and 28 (n = 8–10 mice/group); 2) cresyl violet staining at day 28 (n = 9 mice/group); 3) histology, determination of brain water content, and western blot analysis at day 1 or 3 (n = 5–6 mice/group). To determine the optimal dose of salidroside, a pilot study was performed using 2 different doses (20 and 50 mg/kg) administered 10 min after injury, and neurological deficits and tissue damage were evaluated as the main outcomes. […] The second set of experiment was to assess the effect of the inhibition of PI3K/Akt with the specific PI3K inhibitor, LY294002 (Cell Signaling Technology, Danvers, MA, USA), on salidroside effects. Animals were randomized into 4 groups. Mice received either: 1) icv pretreatment of LY294002 followed by SALD 20 after CCI (S20Y group); or 2) icv pretreatment of saline (vehicle control) followed by SALD 20 after CCI (S20V group). 3) Mice were infused icv with saline and were subjected to sham injury. 4) Mice were infused icv with LY294002 and were subjected to sham injury. Testing after injury was completed as follows: 1) cresyl violet staining at day 28 (n = 6 mice/group); 2) western blot analysis at day 1 (n = 6 mice/group). The third set of experiment was performed to examine the neuroprotective time window afforded by salidroside. Mice received intraperitoneal SALD 20 or vehicle (saline) at 3 or 6 h following CCI and were sacrificed 1 day later for FJB staining and western blot analysis (n = 6 mice/group). Brains of injured or sham animals were collected 1 day and 3 days post CCI or sham surgery, and a 4 mm coronal section from the injured area over the parietal cortex and ipsilateral hippocampus were collected. […] Protein concentration was determined by Bradford reagent spectrophotometrically at A595. […] The relative intensity of protein signals was normalized to the corresponding β-actin intensity and was quantified by densitometric analysis with the use of Image J software. […]

cytosolic CytoC = experiment: Western blot, cytosolic fraction of injured cortex; format: in vivo, mice; conditions: 20 mg/kg ip 10 min after CCI
Method: as §1

[1] = test system: primary cultured cortical neurons; experiment: MTT cell viability after in vitro neuronal stretch injury; format: cell-based, C57BL/6 mice; conditions: added immediately after injury, MTT at 24 h, stretch alone 61.8±1.5%
Method: All culture medium supplies were from Invitrogen (Invitrogen, Carlsbad, CA, USA). Cortical neuronal cells were prepared from embryonic day 15.5 C57BL/6 mice and cultured in serum-free conditions as previously described. Briefly, the cortices were isolated and digested in 0.5 mg/mL papain at 37°C for 15 min, followed by dissociation in Hibernate-A medium (containing B27 supplement) by aspirating trituration. The cells were then plated onto poly-L-lysine-coated 6-well silastic culture plates (Flexcell International Corporation, Hillsborough, NC, USA) at a density of 5×10^4 cells/cm^2 and maintained in Neurobasal medium supplemented with B27, 10 units/mL penicillin, […], and 0.5 mg/mL glutamine. Four days after plating, 50% of the medium was removed and replaced with fresh medium. The cells were cultured at 37°C in a humidified tri-gas incubator (5%O2, 90% N2, and 5% CO2) and were used at day 10 in vitro. The cortical cultures contain mostly neurons and there were <2% of glia cells, as determined by immunohistochemical staining.
Cultures were stretched by rapid deformation of the silastic culture plates (Flexplates), using the Cell Injury Controller II (Custom Design and Fabrication; Virginia Commonwealth University, Richmond, VA, USA) as previously described. This device uses a regulated flow of compressed gas to rapidly pressurize cells cultured on flexible substrates, causing a radial stretch injury. […] This stimulus intensity corresponds to the “moderate stretch” [62]. The primary cultured neurons were treated with 0.1, 1, 10, 20, and 50 µM salidroside, respectively, immediately following injury. The cortical neurons cultured in plain medium served as control. Cell viability analysis was performed 24 h after injury.
The cell viability was determined by assessing the degree of MTT reduction. Briefly, cells were incubated at 37°C for 2 h with MTT (0.5 mg/mL final concentration; Sigma-Aldrich; St. Louis, MO, USA). Afterwards, a solution of anhydrous isopropanol, HCl (0.1 N), and 0.1% Triton X-100 was added for the dissolution of formazan crystal. The optical density was determined at 570 nm using a microplate reader. Cell viability was expressed as a percentage of the control culture. The experiments were repeated 4 times with different batches of primary cultures.

OC[C@H]1O[C@@H](OCCc2ccc(O)cc2)[C@H](O)[C@@H](O)[C@@H]1O [SALD, salidroside]
body weight versus vehicle (Body weight after CCI; 20 mg/kg ip after CCI): No significant difference
body weight versus vehicle (Body weight after CCI; 50 mg/kg ip after CCI): No significant difference
cytosolic Smac/DIABLO level compared to vehicle-treated injured brains (cytosolic Smac/DIABLO; day 1): 45.1%
cytosolic Smac/DIABLO level compared to vehicle-treated injured brains (cytosolic Smac/DIABLO; day 3): 58.1%
cytosolic CytoC level compared to vehicle-treated injured brains (cytosolic CytoC; day 1, P<0.01): 60.6%
cytosolic CytoC level compared to vehicle-treated injured brains (cytosolic CytoC; day 3, P<0.05): 54.7%
cell survival after stretch injury (relative to control) ([1]; 0.1 µM, P>0.05): 65.3±1.3%
cell survival after stretch injury (relative to control) ([1]; 1 µM, P<0.001): 72.5±1.6%
cell survival after stretch injury (relative to control) ([1]; 10 µM, P<0.001): 90.9±1.4%
cell survival after stretch injury (relative to control) ([1]; 20 µM, P<0.001): 91.4±1.4%
cell survival after stretch injury (relative to control) ([1]; 50 µM, P<0.001): 90.5±1.4%
